Measured values reported in patent US20100240868A1, “Composition and Method for a Producing Stable Amyloid Beta Oligomers of High Molecular Weight” (priority 2005, published 2010).

Columns and labels:
[1] = SDS-PAGE analysis of glutaraldehyde cross-linked samples (oligomer formation and storage stability); type: physicochemical
Experimental: The soluble Aβ oligomers were cross-linked with glutaraldehyde, incubated for 10 minutes at room temperature and then quenched with 1M glycine, 1M Tris-HCl pH 7.5. Cross-linked samples were then diluted to a final concentration of 0.02 μg/μL, in Tris-glycine SDS sample buffer. For analysis, 0.28 μg Aβ (nominal concentration) in either monomeric or oligomeric form was separated by electrophoresis at 125V for about 100 minutes using a 4% to 20% tris-glycine gel (Invitrogen, Carlsbad, Calif.). Gels were then silver stained to visualize the size distribution of the soluble Aβ oligomers. For glutaraldehyde concentration optimization, HFIP-dried Aβ42 or HFIP-dried Aβ40 was solubilized in DMSO (20 mg/mL, 4.4 mM), added to 50 mM phosphate, pH 9.0, to a final concentration of 1.8 mg/mL (400 μM) and incubated at 4° C. overnight, protected from light. […]
As set forth above in Examples 1-4, Aβ42 forms soluble Aβ oligomers in 50 mM phosphate, pH 9.0 buffer during storage at 2° C. to 8° C. However, the optimal concentration for formation, biological activity and storage stability of these oligomeric species during storage was not determined. […] These cross-linked species were not disrupted in the presence of SDS, and therefore, the appropriate size distribution could be determined by SDS-PAGE. […]

PC-12 cells = assay: PC-12 MTT reduction assay; type: cell-based; settings: for MTT reduction: PC-12 cells
Experimental: PC-12 cells were plated at 30,000 cells/well and allowed to grow overnight at 37° C./5% CO2. Soluble Aβ oligomers or vehicle were added to cells at concentrations of 1 μM and 5 μM. After a four hour incubation at 37° C./5% CO2, the MTT reduction assay was performed (Lambert et al., 2001, J. Neurochem. 79, 595-605). Briefly, MTT (10 μL, 5 mg/mL) was added to each well and allowed to incubate for four hours. A solubilization buffer (100 μL, 10% SDS in 0.01 N HCl) was added and the plate was incubated at 37° C./5% CO2 overnight. The assay was then quantified at 595 nm on a Tecan Spectrafluor Plus plate reader (Tecan Systems, San Jose, Calif.).
In this experiment, Aβ42 was prepared at concentrations of 1 mM, 850 μM, 650 μM, 450 μM, 250 μM and 100 μM in 50 mM phosphate pH 9.0 buffer as described in the Example 8. After 7 days of incubation at 4° C., samples were tested by the MTT assay to determine bioactivity.

Substance	oligomer formation ([1]; 400 μM in 50 mM phosphate, pH 9.0, 24 hour incubation at 4° C.)	MTT reduction (PC-12 cells; stock concentrations 450 μM to 650 μM in 50 mM phosphate pH 9.0, 7 days at 4° C., test concentration 5 μM, 4 h incubation)	MTT reduction (PC-12 cells; stock concentrations below 450 μM and above 650 μM in 50 mM phosphate pH 9.0, 7 days at 4° C., tested at 1 μM and 5 μM)	bioactivity after storage (PC-12 cells; stock concentrations of 450 μM to 650 μM in 50 mM phosphate, pH 9.0 buffer, storage at 2-8° C.)	storage stability of oligomeric (150 kDa) species ([1]; stock concentration 450 μM in 50 mM phosphate, pH 9.0 buffer, 1, 4 and 7 days at 4° C., 0.5% glutaraldehyde cross-linking)
Aβ40: HFIP-dried Aβ40 monomer peptide, solubilized in DMSO and incubated in 50 mM phosphate, pH 9.0 [reference compound]	primarily stays monomeric and does not form oligomers	–	–	–	–
Aβ peptide (1-42) [Aβ42]	–	about 55%	80-105%	remain bioactive for up to seven days	can be stored for seven days at 4 °C
